According to article PMC5218480 (PLoS ONE, 2017):

System: MV-4-11 cells
Test: Gene expression microarray analysis (Affymetrix PrimeView) and GSEA
Type: cell-based, human
Set-up: RFU PODN (11730768_x_at) / Fold change /veh PODN (11730768_x_at) / RFU LINC00158 (11744669_a_at) / Fold change /veh LINC00158 (11744669_a_at) / RFU DUSP10 (11751237_a_at) / Fold change /veh DUSP10 (11751237_a_at) / RFU ID3 (11757404_x_at) / Fold change /veh ID3 (11757404_x_at) / RFU PLEKHG5 (11737974_s_at) / Fold change /veh PLEKHG5 (11737974_s_at) / RFU LRRC4B (11730491_at) / Fold change /veh LRRC4B (11730491_at) / RFU GIMAP4 (11747438_a_at) / Fold change /veh GIMAP4 (11747438_a_at) / RFU KRT8 (11758183_x_at) / Fold change /veh KRT8 (11758183_x_at) / RFU CNN1 (11734310_a_at) / Fold change /veh CNN1 (11734310_a_at) / RFU VPS37D (11726825_at) / Fold change /veh VPS37D (11726825_at) / RFU C10orf10 (11716522_x_at) / Fold change /veh C10orf10 (11716522_x_at) / RFU KIR2DL2 /// KIR2DL4 /// KIR2DL5A /// KIR2DL5B /// KIR2DS1 /// KIR2DS2 /// KIR2DS3 /// KIR2DS4 /// KIR3DL3 /// KIR3DL3 /// KIR3DS1 (11738374_at) / Fold change /veh KIR2DL2 /// KIR2DL4 /// KIR2DL5A /// KIR2DL5B /// KIR2DS1 /// KIR2DS2 /// KIR2DS3 /// KIR2DS4 /// KIR3DL3 /// KIR3DL3 /// KIR3DS1 (11738374_at) / RFU C1QL1 (11718748_at) / Fold change /veh C1QL1 (11718748_at) / RFU TMPRSS4 (11747572_a_at) / Fold change /veh TMPRSS4 (11747572_a_at) / RFU HAMP (11756126_x_at) / Fold change /veh HAMP (11756126_x_at) / RFU RNFT2 (11725882_a_at) / Fold change /veh RNFT2 (11725882_a_at) / RFU NR4A2 (11747474_a_at) / Fold change /veh NR4A2 (11747474_a_at) / RFU ABCC12 (11746883_a_at) / Fold change /veh ABCC12 (11746883_a_at) / RFU TMEM136 (11760407_x_at) / Fold change /veh TMEM136 (11760407_x_at) / RFU CLDN22 /// WWC2 (11732394_at) / Fold change /veh CLDN22 /// WWC2 (11732394_at) / RFU HLA-DPB1 (11760878_x_at) / Fold change /veh HLA-DPB1 (11760878_x_at) / RFU SPINT1 (11716480_a_at) / Fold change /veh SPINT1 (11716480_a_at) / RFU GAP43 (11754022_s_at) / Fold change /veh GAP43 (11754022_s_at) / RFU A4GNT (11735810_at) / Fold change /veh A4GNT (11735810_at) / RFU PRB3 (11715151_x_at) / Fold change /veh PRB3 (11715151_x_at) / RFU TUBB4B (11761932_at) / Fold change /veh TUBB4B (11761932_at) / RFU CAPN14 (11732068_a_at) / Fold change /veh CAPN14 (11732068_a_at) / RFU TMCC2 (11721928_a_at) / Fold change /veh TMCC2 (11721928_a_at) / RFU IRGQ (11745062_a_at) / Fold change /veh IRGQ (11745062_a_at) / RFU FAM174B (11720279_a_at) / Fold change /veh FAM174B (11720279_a_at) / RFU TMPRSS4 (11748680_a_at) / Fold change /veh TMPRSS4 (11748680_a_at) / RFU FAM212B (11763350_a_at) / Fold change /veh FAM212B (11763350_a_at) / RFU PLEKHG5 (11743358_a_at) / Fold change /veh PLEKHG5 (11743358_a_at) / RFU ZSCAN30 (11745921_a_at) / Fold change /veh ZSCAN30 (11745921_a_at) / RFU CMKLR1 (11741424_a_at) / Fold change /veh CMKLR1 (11741424_a_at) / RFU LOC101060620 /// MAPK8IP1 (11723275_at) / Fold change /veh LOC101060620 /// MAPK8IP1 (11723275_at) / RFU SPTSSB (11747773_x_at) / Fold change /veh SPTSSB (11747773_x_at) / RFU PRSS12 (11739890_at) / Fold change /veh PRSS12 (11739890_at) / RFU BIN1 (11741810_x_at) / Fold change /veh BIN1 (11741810_x_at) / RFU WNT11 (11732464_a_at) / Fold change /veh WNT11 (11732464_a_at) / RFU C10orf10 (11716521_a_at) / Fold change /veh C10orf10 (11716521_a_at) / RFU C5orf56 (11738089_at) / Fold change /veh C5orf56 (11738089_at) / RFU CYB561 (11721691_x_at) / Fold change /veh CYB561 (11721691_x_at) / RFU ANKRD19P (11752326_a_at) / Fold change /veh ANKRD19P (11752326_a_at) / RFU OR2T12 /// OR2T33 /// OR2T8 (11738714_s_at) / Fold change /veh OR2T12 /// OR2T33 /// OR2T8 (11738714_s_at) / RFU VCAN (11748164_a_at) / Fold change /veh VCAN (11748164_a_at) / RFU JSRP1 (11732532_at) / Fold change /veh JSRP1 (11732532_at) / RFU KRTAP10-11 (11738290_x_at) / Fold change /veh KRTAP10-11 (11738290_x_at) / RFU MYO3A (11730013_a_at) / Fold change /veh MYO3A (11730013_a_at) / RFU EBF3 (11725865_a_at) / Fold change /veh EBF3 (11725865_a_at) / RFU CAMK2N1 (11719241_x_at) / Fold change /veh CAMK2N1 (11719241_x_at) / RFU C5orf56 (11738088_a_at) / Fold change /veh C5orf56 (11738088_a_at) / RFU OLFML3 (11715873_a_at) / Fold change /veh OLFML3 (11715873_a_at) / RFU LOC100653217 /// NTM (11731650_a_at) / Fold change /veh LOC100653217 /// NTM (11731650_a_at) / RFU MAPK11 (11762145_a_at) / Fold change /veh MAPK11 (11762145_a_at) / RFU FIZ1 (11724087_x_at) / Fold change /veh FIZ1 (11724087_x_at) / RFU OASL (11726364_x_at) / Fold change /veh OASL (11726364_x_at) / RFU SOX15 (11748057_x_at) / Fold change /veh SOX15 (11748057_x_at) / RFU CD79A (11719716_a_at) / Fold change /veh CD79A (11719716_a_at) / RFU HIST1H1D (11736915_at) / Fold change /veh HIST1H1D (11736915_at) / RFU CASKIN2 (11723855_a_at) / Fold change /veh CASKIN2 (11723855_a_at) / RFU LOC730098 (11760151_x_at) / Fold change /veh LOC730098 (11760151_x_at) / RFU OR4N2 (11742367_at) / Fold change /veh OR4N2 (11742367_at) / RFU PRRT2 (11749266_a_at) / Fold change /veh PRRT2 (11749266_a_at) / RFU SNX32 (11753110_a_at) / Fold change /veh SNX32 (11753110_a_at) / RFU CDHR5 (11726645_a_at) / Fold change /veh CDHR5 (11726645_a_at) / RFU RCAN1 (11760418_a_at) / Fold change /veh RCAN1 (11760418_a_at) / RFU FAM167A (11723789_a_at) / Fold change /veh FAM167A (11723789_a_at) / RFU FAM26E (11764081_at) / Fold change /veh FAM26E (11764081_at) / RFU ISYNA1 (11749810_s_at) / Fold change /veh ISYNA1 (11749810_s_at) / RFU ACY1 (11761880_at) / Fold change /veh ACY1 (11761880_at) / RFU 11764098_at / Fold change /veh 11764098_at / RFU SAMD14 (11745864_x_at) / Fold change /veh SAMD14 (11745864_x_at) / RFU NPB (11741838_a_at) / Fold change /veh NPB (11741838_a_at) / RFU TMPRSS6 (11731388_a_at) / Fold change /veh TMPRSS6 (11731388_a_at) / RFU KRTAP10-2 (11738614_at) / Fold change /veh KRTAP10-2 (11738614_at) / RFU ARHGAP8 /// PRR5-ARHGAP8 (11727945_x_at) / Fold change /veh ARHGAP8 /// PRR5-ARHGAP8 (11727945_x_at) / RFU KRTAP5-7 /// NADSYN1 (11734609_at) / Fold change /veh KRTAP5-7 /// NADSYN1 (11734609_at) / RFU RASL12 (11751679_a_at) / Fold change /veh RASL12 (11751679_a_at) / RFU CDKN2B (11736163_a_at) / Fold change /veh CDKN2B (11736163_a_at) / RFU PRF1 (11729649_at) / Fold change /veh PRF1 (11729649_at) / RFU, ZNF638 /// ZNF638-IT1 / Fold change vs veh, ZNF638 /// ZNF638-IT1 / RFU, PANK3 / Fold change vs veh, PANK3 / RFU, SH3YL1 / Fold change vs veh, SH3YL1 / RFU, ZEB2 / Fold change vs veh, ZEB2 / RFU, NRIP1 / Fold change vs veh, NRIP1 / RFU, PTTG1IP / Fold change vs veh, PTTG1IP / RFU, CAPN2 / Fold change vs veh, CAPN2 / RFU, MED14 / Fold change vs veh, MED14 / RFU, SNORA58 / Fold change vs veh, SNORA58 / RFU, C1orf63 / Fold change vs veh, C1orf63 / RFU, LRRFIP1 / Fold change vs veh, LRRFIP1 / RFU, NDUFAF7 / Fold change vs veh, NDUFAF7 / RFU, SLC12A2 / Fold change vs veh, SLC12A2 / RFU, IBTK / Fold change vs veh, IBTK / RFU, ESF1 / Fold change vs veh, ESF1 / Fold change vs veh, TMEM50B / RFU, TAOK1 / Fold change vs veh, TAOK1 / RFU, ACBD3 / Fold change vs veh, ACBD3 / RFU, TMA16 / Fold change vs veh, TMA16 / RFU, RWDD3 / Fold change vs veh, RWDD3 / RFU, BCAT1 / Fold change vs veh, BCAT1 / RFU, EDEM3 / Fold change vs veh, EDEM3 / RFU, TMEM33 / Fold change vs veh, TMEM33 / RFU, WDR75 / Fold change vs veh, WDR75 / RFU, AHCTF1 / Fold change vs veh, AHCTF1 / RFU, TFRC / Fold change vs veh, TFRC / RFU, ZDHHC17 / Fold change vs veh, ZDHHC17 / RFU, NOM1 / Fold change vs veh, NOM1 / RFU, ARL8B / Fold change vs veh, ARL8B / RFU, ZBTB11 / Fold change vs veh, ZBTB11 / RFU, TAMM41 / Fold change vs veh, TAMM41 / RFU, KIAA1704 /// LOC100996395 / Fold change vs veh, KIAA1704 /// LOC100996395 / RFU, ING1 / Fold change vs veh, ING1 / RFU, TRMT61B / Fold change vs veh, TRMT61B / RFU, FUBP3 / Fold change vs veh, FUBP3 / RFU, TP53 / Fold change vs veh, TP53 / RFU, TNKS2 / Fold change vs veh, TNKS2 / RFU, ZFP14 / Fold change vs veh, ZFP14 / RFU, ACTR2 / Fold change vs veh, ACTR2 / RFU, PPP3R1 / Fold change vs veh, PPP3R1 / RFU, PIK3R1 / Fold change vs veh, PIK3R1 / RFU, HNRNPA1 / Fold change vs veh, HNRNPA1 / RFU, RNF170 / Fold change vs veh, RNF170 / RFU, ZNF28 / Fold change vs veh, ZNF28 / RFU, RNGTT / Fold change vs veh, RNGTT / RFU, OGT / Fold change vs veh, OGT / RFU, BRD1 / Fold change vs veh, BRD1 / RFU, MARS / Fold change vs veh, MARS / RFU, ZNF655 / Fold change vs veh, ZNF655 / RFU, FAHD1 / Fold change vs veh, FAHD1 / RFU, BDP1 / Fold change vs veh, BDP1 / RFU, LRRCC1 / Fold change vs veh, LRRCC1 / RFU, ARID1A / Fold change vs veh, ARID1A / RFU, ZNF146 / Fold change vs veh, ZNF146 / RFU, ZNF330 / Fold change vs veh, ZNF330 / RFU, GPN3 / Fold change vs veh, GPN3 / RFU, C9orf123 / Fold change vs veh, C9orf123 / RFU, N4BP2L2 / Fold change vs veh, N4BP2L2 / RFU, ARFIP1 / Fold change vs veh, ARFIP1 / RFU, FAM179B / Fold change vs veh, FAM179B / RFU, BCL10 / Fold change vs veh, BCL10 / RFU, UHRF1BP1L / Fold change vs veh, UHRF1BP1L / RFU, BET1 / Fold change vs veh, BET1 / RFU, CNOT2 / Fold change vs veh, CNOT2 / RFU, ZNF268 / Fold change vs veh, ZNF268 / Fold change vs veh, ZNF507 / RFU, DGCR2 / Fold change vs veh, DGCR2 / RFU, WDSUB1 / Fold change vs veh, WDSUB1 / Fold change vs veh, HSP90B1 /// MIR3652 / RFU, ADSS / Fold change vs veh, ADSS / RFU, GK / Fold change vs veh, GK / RFU, ZNF148 / Fold change vs veh, ZNF148 / RFU, TAF9 / Fold change vs veh, TAF9 / RFU, SLC1A5 / Fold change vs veh, SLC1A5 / RFU, SLMO2 / Fold change vs veh, SLMO2 / RFU, ABCC4 / Fold change vs veh, ABCC4 / RFU, LOC101060439 /// RAP1B / Fold change vs veh, LOC101060439 /// RAP1B / RFU, RFX7 / Fold change vs veh, RFX7 / RFU, GTPBP10 / Fold change vs veh, GTPBP10 / RFU, CNEP1R1 / Fold change vs veh, CNEP1R1 / RFU, BIVM-ERCC5 /// ERCC5 / Fold change vs veh, BIVM-ERCC5 /// ERCC5 / RFU, ILF3 / Fold change vs veh, ILF3 / RFU 11762660_at / Fold change /veh 11762660_at / RFU VCAN (11757783_s_at) / Fold change /veh VCAN (11757783_s_at) / RFU DDX43 (11728927_at) / Fold change /veh DDX43 (11728927_at) / RFU KRT8 (11758188_x_at) / Fold change /veh KRT8 (11758188_x_at) / RFU NKD1 (11759106_at) / Fold change /veh NKD1 (11759106_at) / RFU SRD5A1 (11742802_a_at) / Fold change /veh SRD5A1 (11742802_a_at) / RFU TPSAB1 /// TPSB2 (11721975_s_at) / Fold change /veh TPSAB1 /// TPSB2 (11721975_s_at) / RFU GSTM3 (11746129_a_at) / Fold change /veh GSTM3 (11746129_a_at) / RFU IL23R (11737362_x_at) / Fold change /veh IL23R (11737362_x_at) / RFU TMEM51 (11727254_a_at) / Fold change /veh TMEM51 (11727254_a_at) / RFU PIWIL2 (11732686_x_at) / Fold change /veh PIWIL2 (11732686_x_at) / RFU ORM1 (11744905_x_at) / Fold change /veh ORM1 (11744905_x_at) / RFU CCDC152 (11743942_at) / Fold change /veh CCDC152 (11743942_at) / RFU ECM1 (11717891_a_at) / Fold change /veh ECM1 (11717891_a_at) / RFU IL23R (11748794_a_at) / Fold change /veh IL23R (11748794_a_at) / RFU TNFAIP8L3 (11732012_x_at) / Fold change /veh TNFAIP8L3 (11732012_x_at) / RFU MBOAT4 (11741988_at) / Fold change /veh MBOAT4 (11741988_at) / RFU 11764193_at / Fold change /veh 11764193_at / RFU TMEM53 (11763286_at) / Fold change /veh TMEM53 (11763286_at) / RFU MAGEB2 (11727129_at) / Fold change /veh MAGEB2 (11727129_at) / RFU TMEM200A (11744735_a_at) / Fold change /veh TMEM200A (11744735_a_at) / RFU CCDC152 (11751479_a_at) / Fold change /veh CCDC152 (11751479_a_at) / RFU FAM211A (11726209_a_at) / Fold change /veh FAM211A (11726209_a_at) / RFU RGS16 (11746705_a_at) / Fold change /veh RGS16 (11746705_a_at) / RFU VCAN (11755009_s_at) / Fold change /veh VCAN (11755009_s_at) / RFU RHOB (11743442_s_at) / Fold change /veh RHOB (11743442_s_at) / RFU RGS16 (11720943_a_at) / Fold change /veh RGS16 (11720943_a_at) / RFU RGS16 (11720944_at) / Fold change /veh RGS16 (11720944_at) / RFU, VPS4B / Fold change vs veh, VPS4B / RFU, CREB1 / Fold change vs veh, CREB1 / RFU, DNAJC13 / Fold change vs veh, DNAJC13 / RFU, GNAQ / Fold change vs veh, GNAQ / RFU, CDK5R1 / Fold change vs veh, CDK5R1 / RFU, ZRANB3 / Fold change vs veh, ZRANB3 / RFU, CUL4A / Fold change vs veh, CUL4A / RFU, CCNY / Fold change vs veh, CCNY / RFU, UFL1 / Fold change vs veh, UFL1 / RFU, COG3 / Fold change vs veh, COG3 / RFU, DIAPH2 / Fold change vs veh, DIAPH2 / RFU, SKA2 / Fold change vs veh, SKA2 / RFU, AFF3 / Fold change vs veh, AFF3 / RFU, LMF1 / Fold change vs veh, LMF1 / RFU, IPO11 / Fold change vs veh, IPO11 / RFU, DFFB / Fold change vs veh, DFFB / RFU, FOXP1 / Fold change vs veh, FOXP1 / RFU, CARD8 / Fold change vs veh, CARD8 / RFU, STRN3 / Fold change vs veh, STRN3 / RFU, ADK / Fold change vs veh, ADK / RFU, RASSF2 / Fold change vs veh, RASSF2 / RFU, WIPF1 / Fold change vs veh, WIPF1 / RFU, LARP1B / Fold change vs veh, LARP1B / RFU, RASA1 / Fold change vs veh, RASA1 / RFU, RB1 / Fold change vs veh, RB1 / RFU, PPFIA1 / Fold change vs veh, PPFIA1 / RFU, MAT2A / Fold change vs veh, MAT2A / RFU, CCT5 / Fold change vs veh, CCT5 / RFU, WDR92 / Fold change vs veh, WDR92 / RFU, CUX1 / Fold change vs veh, CUX1 / RFU, TTC7A / Fold change vs veh, TTC7A / RFU, TMEM135 / Fold change vs veh, TMEM135 / RFU, DEPTOR / Fold change vs veh, DEPTOR / RFU, CPM / Fold change vs veh, CPM / RFU, DNAJB6 / Fold change vs veh, DNAJB6 / RFU, CACNA2D3 / Fold change vs veh, CACNA2D3 / RFU, DTX4 / Fold change vs veh, DTX4 / RFU, TFCP2 / Fold change vs veh, TFCP2 / RFU, GMCL1 /// GMCL1P1 / Fold change vs veh, GMCL1 /// GMCL1P1 / RFU, AEBP2 / Fold change vs veh, AEBP2 / RFU, SNHG1 /// SNORD22 /// SNORD25 /// SNORD26 /// SNORD27 /// SNORD28 /// SNORD29 /// SNORD31 / Fold change vs veh, SNHG1 /// SNORD22 /// SNORD25 /// SNORD26 /// SNORD27 /// SNORD28 /// SNORD29 /// SNORD31 / Fold change (Aza/veh), C12orf56 (ProbeSet 11735607_a_at) / Fold change (ACY-1035/veh), C12orf56 (ProbeSet 11735607_a_at) / Fold change (Aza/veh), FGFR1OP (ProbeSet 11751329_s_at) / Fold change (ACY-1035/veh), FGFR1OP (ProbeSet 11751329_s_at) / Fold change (Aza/veh), VPS36 (ProbeSet 11739960_a_at) / Fold change (ACY-1035/veh), VPS36 (ProbeSet 11739960_a_at) / RFU SYPL1 (11715823_x_at) / Fold change /veh SYPL1 (11715823_x_at) / RFU IGFBP7 (11715501_s_at) / Fold change /veh IGFBP7 (11715501_s_at) / RFU REEP3 (11722064_at) / Fold change /veh REEP3 (11722064_at) / RFU IGLL1 (11728026_x_at) / Fold change /veh IGLL1 (11728026_x_at): dose or concentration left out as unconfirmed
Details: MV-4-11 cells, 48 hours

SMILES: Nc1ccc(-c2cccs2)cc1NC(=O)c1ccc2c(c1)cc(C1CC1)n2CCN1CCOCC1 [ACY-1035]
- RFU GAP43 (11754022_s_at): 68.94 RFU
